Measurements published in ChEMBL document CHEMBL3039007, “Structure-based identification of OATP1B1/3 inhibitors” (Mol Pharmacol, 2013).

What was measured:
[1] = target: T1, Solute carrier organic anion transporter family member 1B1 (Homo sapiens, UniProt Q9Y6L6); conditions: chinese hamster, cho, 10 µM
T1 sequence (Q9Y6L6 whole entry): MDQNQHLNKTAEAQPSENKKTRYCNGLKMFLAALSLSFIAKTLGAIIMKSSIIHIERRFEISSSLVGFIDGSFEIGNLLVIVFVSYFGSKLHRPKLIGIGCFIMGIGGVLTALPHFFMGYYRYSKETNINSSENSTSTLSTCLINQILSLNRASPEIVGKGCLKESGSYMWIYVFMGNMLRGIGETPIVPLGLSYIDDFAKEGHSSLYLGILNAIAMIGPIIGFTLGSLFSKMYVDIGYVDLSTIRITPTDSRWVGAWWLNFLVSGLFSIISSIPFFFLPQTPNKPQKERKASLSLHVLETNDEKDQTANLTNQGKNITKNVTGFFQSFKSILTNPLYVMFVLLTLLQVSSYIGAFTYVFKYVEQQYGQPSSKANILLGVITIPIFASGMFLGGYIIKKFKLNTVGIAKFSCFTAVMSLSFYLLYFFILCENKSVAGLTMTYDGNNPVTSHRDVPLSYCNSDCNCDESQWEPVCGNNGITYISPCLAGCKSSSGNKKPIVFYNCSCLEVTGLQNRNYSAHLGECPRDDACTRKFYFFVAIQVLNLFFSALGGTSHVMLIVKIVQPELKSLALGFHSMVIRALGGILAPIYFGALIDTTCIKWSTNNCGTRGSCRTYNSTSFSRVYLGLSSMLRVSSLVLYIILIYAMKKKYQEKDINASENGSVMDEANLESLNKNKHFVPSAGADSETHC

[2] = target: T2, Solute carrier organic anion transporter family member 1B3 (Homo sapiens, UniProt Q9NPD5); conditions: chinese hamster, cho, 10 µM
T2 sequence (Q9NPD5 whole entry): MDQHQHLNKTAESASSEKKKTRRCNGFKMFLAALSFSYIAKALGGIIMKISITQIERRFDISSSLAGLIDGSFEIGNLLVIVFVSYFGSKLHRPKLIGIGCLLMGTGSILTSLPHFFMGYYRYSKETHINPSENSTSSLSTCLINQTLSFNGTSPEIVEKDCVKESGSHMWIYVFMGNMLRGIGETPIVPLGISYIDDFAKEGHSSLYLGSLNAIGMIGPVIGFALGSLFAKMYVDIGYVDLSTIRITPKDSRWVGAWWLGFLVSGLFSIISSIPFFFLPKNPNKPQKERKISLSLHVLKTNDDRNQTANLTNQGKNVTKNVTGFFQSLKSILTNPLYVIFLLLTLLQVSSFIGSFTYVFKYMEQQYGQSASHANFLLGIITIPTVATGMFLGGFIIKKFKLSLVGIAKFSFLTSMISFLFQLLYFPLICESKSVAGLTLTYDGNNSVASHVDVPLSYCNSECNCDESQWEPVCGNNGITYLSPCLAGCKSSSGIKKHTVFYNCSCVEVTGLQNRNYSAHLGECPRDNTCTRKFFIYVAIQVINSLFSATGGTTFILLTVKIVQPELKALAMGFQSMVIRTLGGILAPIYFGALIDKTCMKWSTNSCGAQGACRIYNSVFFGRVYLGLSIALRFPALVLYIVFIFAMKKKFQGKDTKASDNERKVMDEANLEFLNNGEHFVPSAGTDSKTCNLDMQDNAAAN

SMILES	residual activity [1]	residual activity [2]
COc1ccc(-c2cc(=O)c3ccc(OC)cc3o2)cc1 [4,7-DIMETHOXYFLAVONE]	91.89%	87.07%
CC(=O)Oc1ccc(O)cc1 [4-ACETOXYPHENOL]	136.7%	116.4%
NCC(CC(=O)O)c1ccc(Cl)s1 (stereo not given) [4-AMINO-3- (5-CHLOROTHIEN-2-YL)BUTANOIC ACID]	116.9%	99.7%
Cl.NCCc1ccc(S(=O)(=O)F)cc1 [4-AMINOETHYLBENZENESULFONYL FLUORIDE HYDROCHLORIDE]	71.73%	100%
C=CC(C1=CC(=O)C(OC)=CC1=O)c1ccccc1 (stereo not given) [4-METHOXYDALBERGIONE]	77.75%	139.3%
Cc1cc(=O)oc2c(O)c(O)ccc12 [4-METHYLDAPHNETIN]	61.23%	78.2%
Cc1cc(=O)oc2cc(O)c(O)cc12 [4-METHYLESCULETIN]	121.7%	110.1%
CCCCCCCCCc1ccc(O)cc1 [4-NONYLPHENOL]	140.8%	184.2%
Cc1cc(=O)oc2cc(O)cc(O)c12 [5,7-DIHYDROXY-4-METHYLCOUMARIN]	79.94%	106.7%
O=c1c(-c2ccccc2)coc2cc(O)cc(O)c12 [5,7-DIHYDROXYISOFLAVONE]	54.1%	75.57%
COc1cc(OC)c2c(=O)c(-c3ccccc3)coc2c1 [5,7-DIMETHOXYISOFLAVONE]	99.46%	104.7%
Cl.NCCCCC(=O)O [5-AMINOPENTANOIC ACID HYDROCHLORIDE]	59.53%	62.53%
O=C(O)c1cc2cc(Cl)ccc2[nH]1 [5-CHLOROINDOLE-2-CARBOXYLIC ACID]	75.02%	91.36%
O=C(O)c1cc2cc(F)ccc2[nH]1 [5-FLUOROINDOLE-2-CARBOXYLIC ACID]	108.9%	103.9%
COc1cc(O)c2c(=O)c(-c3ccccc3)coc2c1 [5-HYDROXY-7-METHOXYISOFLAVONE]	99.72%	104.3%
C=C1CCC2C(CC2(C)C)C(=C)CC/C1=N/O (stereo not given) [5-HYDROXYIMINOISOCARYOPHYLLENE]	84.7%	80.99%
COc1ccc2[nH]cc(CCN)c2c1 [5-METHOXYTRYPTAMINE]	59.83%	73.24%
O=C(O)c1cc([N+](=O)[O-])ccc1NCCCc1ccccc1 [5-NITRO-2-PHENYLPROPYLAMINOBENZOIC ACID [NPPB]]	40.14%	33.43%
COc1ccc2c(c1)[C@@]1(C)CCC(=O)C[C@@H]1CC2 [5alpha-12-METHOXY-4,4-BISNOR-8,11,13-PODOCARPATRIEN-3-ONE]	131.2%	89.3%
CC(C)CCC[C@@H](C)[C@H]1CC[C@H]2[C@@H]3CC(=O)[C@H]4C[C@@H](O)CC[C@]4(C)[C@H]3CC[C@]12C [5alpha-CHOLESTAN-3beta-OL-6-ONE]	101.9%	105.8%
COc1cccc(-c2cc(=O)c3cc(OC)ccc3o2)c1 [6,3'-DIMETHOXYFLAVONE]	131.7%	120.4%
COc1ccc(-c2cc(=O)c3cc(OC)ccc3o2)cc1 [6,4'-DIMETHOXYFLAVONE]	34.44%	110.4%
O=C(O)c1nc2cc(Cl)c(Cl)cc2nc1O [6,7-DICHLORO-3-HYDROXY-2-QUINOXALINECARBOXYLIC ACID]	119%	108%

SMILES	residual activity [1]	residual activity [2]
NC(=O)c1ccc(N)nc1 [6-AMINONICOTINAMIDE]	103.2%	108.6%
C=C1C2CC[C@@]3(C)[C@H](c4ccoc4)OC(=O)C[C@]13O[C@H]1CC(=O)C(C)(C)[C@H](C(O)C(=O)OC)[C@@]21C (stereo not given in full) [6-HYDROXYANGOLENSIC ACID METHYL ESTER]	23.65%	61.1%
COc1ccc2c(=O)cc(-c3ccccc3OC)oc2c1 [7,2'-DIMETHOXYFLAVONE]	95.82%	110.5%
COc1cccc(-c2cc(=O)c3ccc(OC)cc3o2)c1 [7,3'-DIMETHOXYFLAVONE]	98.64%	101.6%
O=c1cc(-c2ccccc2)oc2c(O)c(O)ccc12 [7,8-DIHYDROXYFLAVONE]	107.3%	140.6%
Cn1c(=O)c2c(ncn2CCCl)n(C)c1=O [7-CHLOROETHYLTHEOPHYLLINE]	90.03%	97.15%
O=C(O)c1cc(O)c2ccc(Cl)cc2n1 [7-CHLOROKYNURENIC ACID]	93.09%	89.9%
O=C(O)c1cc(O)c(=O)c2c(O)c(O)ccc2c1 [7-DESHYDROXYPYROGALLIN-4-CARBOXYLIC ACID]	100.2%	69.89%
COc1ccc2c(=O)ccoc2c1 [7-METHOXYCHROMONE]	91.79%	95.23%
O=[N+]([O-])c1cccc2cn[nH]c12 [7-NITROINDAZOLE]	147.5%	106.1%
COC(=O)[C@]1(C)CCC[C@]2(C)c3ccc(C(C)C)cc3C(=O)CC12 (stereo not given in full) [7-OXOCALLITRISIC ACID, METHYL ESTER]	127.8%	105.6%
CC(C)CCC[C@@H](C)[C@H]1CC[C@H]2[C@@H]3C(=O)C=C4C[C@@H](O)CC[C@]4(C)[C@H]3CC[C@]12C [7-OXOCHOLESTEROL]	96.87%	90.78%
CC(=O)O[C@H]1CC[C@@]2(C)C(=CC(=O)[C@H]3[C@@H]4CC[C@H]([C@H](C)CCCC(C)C)[C@@]4(C)CC[C@@H]32)C1 [7-OXOCHOLESTERYL ACETATE]	97.51%	99.45%
COc1ccccc1-c1cc(=O)c2cccc(OC)c2o1 [8,2'-DIMETHOXYFLAVONE]	107.3%	108%
Cn1c(=O)c2[nH]c(C3CCCC3)nc2n(C)c1=O [8-CYCLOPENTYLTHEOPHYLLINE]	111.5%	94.04%
CC(=O)/C=C\[C@@H]1[C@@]2(C)CCCC(C)(C)C2CC[C@@]1(C)O (stereo not given in full) [8-HYDROXY-15,16-BISNOR-11-LABDEN-13-ONE]	71.14%	84.33%
CC1(C)C(=O)[C@H]2C[C@]3(O)C4=CC(=O)O[C@@H](c5ccoc5)[C@@]4(C)CCC3[C@](C)(C2=O)[C@H]1CC(=O)O (stereo not given in full) [8-HYDROXYCARAPINIC ACID]	73.89%	78.38%
COc1ccc([C@H]2Oc3c(I)c(OC)cc(OC)c3C[C@@H]2O)cc1OC [8-IODOCATECHIN TETRAMETHYL ETHER]	194.8%	100.1%
COC(=O)C[C@H]1C(C)(C)C2(O)OC34CC2C(=O)[C@]1(C)C3CC[C@]1(C)C4=CC(=O)O[C@H]1c1ccoc1 (stereo partly drawn) [8beta-HYDROXYCARAPIN, 3,8-HEMIACETAL]	28.54%	49.62%
C[C@]12CCC(=O)C=C1CCc1ccc(O)cc12 [12-HYDROXY-4,4-BISNOR-4,8,11,13-PODOCARPATETRAEN-3-ONE]	47.54%	82.18%
COc1ccc2c(c1)[C@@]1(C)CC[C@@H](O)C[C@@H]1CC2 [12-METHOXY-4,4-BISNOR-5alpha-8,11,13-PODOCARPATRIEN-3-OL]	95.25%	91.61%
COc1ccc2c(c1)OC1(O)COc3cc(OC)c(OC)cc3C1=C2 (stereo not given) [12a-HYDROXY-5-DEOXYDEHYDROMUNDUSERONE]	102.5%	119.6%
